Measurements from the supplement of paper PMC10307832.

Legend:
Experiment in all cases: relative viability (nuclei count vs DMSO), 5 days (fraction); higher = more cells survive
[1] = compound: CN(NC(=O)CC(=O)NN(C)C(=S)c1ccccc1)C(=S)c1ccccc1 [Elesclomol] + C[C@@H](Oc1cc(-c2cnn(C3CCNCC3)c2)cnc1N)c1c(Cl)ccc(F)c1Cl [Crizotinib] (partner 1 µM)
In short: (§1)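 One day after seeding in 1536-well plates, lung cancer cell lines were dosed by pin tool. Dosing was either single-drug or a fixed anchor-drug dose plus five library-drug doses (not always all listed) in √10 steps. After 5 days, nuclei were stained in one fix-and-stain step and counted on 4× images, and relative viability is the nuclei count of treated wells over that of vehicle wells, given as the median of duplicate plates.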

[2] = compound: CN(NC(=O)CC(=O)NN(C)C(=S)c1ccccc1)C(=S)c1ccccc1 [Elesclomol] + COc1cc2c(Oc3ccc(NC(=O)C4(C(=O)Nc5ccc(F)cc5)CC4)cc3F)ccnc2cc1OCCCN1CCOCC1 [Foretinib] (partner 0.25 µM)
In short: as §1

[3] = compound: CN(NC(=O)CC(=O)NN(C)C(=S)c1ccccc1)C(=S)c1ccccc1 [Elesclomol] + CS(=O)(=O)CCNCc1ccc(-c2ccc3ncnc(Nc4ccc(OCc5cccc(F)c5)c(Cl)c4)c3c2)o1 [Lapatinib] (partner 2 µM)
In short: as §1

[4] = compound: CN(NC(=O)CC(=O)NN(C)C(=S)c1ccccc1)C(=S)c1ccccc1 [Elesclomol] + CS(=O)(=O)N1CCN(Cc2cc3nc(-c4cccc5[nH]ncc45)nc(N4CCOCC4)c3s2)CC1 [Pictilisib] (partner 1 µM)
In short: as §1

[5] = compound: CN(NC(=O)CC(=O)NN(C)C(=S)c1ccccc1)C(=S)c1ccccc1 [Elesclomol] + CC1(C)CCC(c2ccc(Cl)cc2)=C(CN2CCN(c3ccc(C(=O)NS(=O)(=O)c4ccc(N[C@H](CCN5CCOCC5)CSc5ccccc5)c(S(=O)(=O)C(F)(F)F)c4)cc3)CC2)C1 [Navitoclax] (partner 0.5 µM)
In short: as §1

[6] = compound: CN(NC(=O)CC(=O)NN(C)C(=S)c1ccccc1)C(=S)c1ccccc1 [Elesclomol] + C[C@]1(O)C[C@@H](c2nc(-c3ccc4ccc(-c5ccccc5)nc4c3)c3c(N)nccn32)C1 [Linsitinib] (partner 1 µM)
In short: as §1

[7] = compound: CN(NC(=O)CC(=O)NN(C)C(=S)c1ccccc1)C(=S)c1ccccc1 [Elesclomol] + Cc1nc(NC(=O)N2CCC[C@H]2C(N)=O)sc1-c1ccnc(C(C)(C)C(F)(F)F)c1 [Alpelisib] (partner 2 µM)
In short: as §1

[8] = compound: CN(NC(=O)CC(=O)NN(C)C(=S)c1ccccc1)C(=S)c1ccccc1 [Elesclomol] + CC(C)C[C@H](NC(=O)[C@H](Cc1ccccc1)NC(=O)c1cnccn1)B(O)O [Bortezomib] (partner 0.002 µM)
In short: as §1

[9] = compound: CN(NC(=O)CC(=O)NN(C)C(=S)c1ccccc1)C(=S)c1ccccc1 [Elesclomol] + O=C(c1cc(Cc2n[nH]c(=O)c3ccccc23)ccc1F)N1CCN(C(=O)C2CC2)CC1 [Olaparib] (partner 8 µM)
In short: as §1

[10] = compound: CN(NC(=O)CC(=O)NN(C)C(=S)c1ccccc1)C(=S)c1ccccc1 [Elesclomol]
In short: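 Vehicle-anchored 1536-well plates of lung cancer cell lines, held overnight at 37 °C, were pinned with five library-drug doses (not always all listed) spaced by √10. No medium change followed over the next 5 days, after which the cells were fixed, permeabilised and Hoechst-stained together and imaged at 4×. Nuclei were counted with MetaXpress, and viability is treated-well nuclei over vehicle-well nuclei, taken as a median across plates. Plates passed with control CV below 25% and at least one doubling.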

Cell Line | relative viability ([1]; first compound 0.003162 µM) | relative viability ([1]; first compound 0.01 µM) | relative viability ([1]; first compound 0.03162 µM) | relative viability ([1]; first compound 0.1 µM) | relative viability ([2]; first compound 0.003162 µM) | relative viability ([2]; first compound 0.01 µM) | relative viability ([2]; first compound 0.03162 µM) | relative viability ([2]; first compound 0.1 µM) | relative viability ([3]; first compound 0.003162 µM) | relative viability ([3]; first compound 0.01 µM) | relative viability ([3]; first compound 0.03162 µM) | relative viability ([3]; first compound 0.1 µM) | relative viability ([4]; first compound 0.003162 µM) | relative viability ([4]; first compound 0.01 µM) | relative viability ([4]; first compound 0.03162 µM) | relative viability ([4]; first compound 0.1 µM) | relative viability ([5]; first compound 0.003162 µM) | relative viability ([5]; first compound 0.01 µM) | relative viability ([5]; first compound 0.03162 µM) | relative viability ([5]; first compound 0.1 µM) | relative viability ([6]; first compound 0.003162 µM) | relative viability ([6]; first compound 0.01 µM) | relative viability ([6]; first compound 0.03162 µM) | relative viability ([6]; first compound 0.1 µM) | relative viability ([7]; first compound 0.003162 µM) | relative viability ([7]; first compound 0.01 µM) | relative viability ([7]; first compound 0.03162 µM) | relative viability ([7]; first compound 0.1 µM) | relative viability ([8]; first compound 0.003162 µM) | relative viability ([8]; first compound 0.01 µM) | relative viability ([8]; first compound 0.03162 µM) | relative viability ([8]; first compound 0.1 µM) | relative viability ([9]; first compound 0.003162 µM) | relative viability ([9]; first compound 0.01 µM) | relative viability ([9]; first compound 0.03162 µM) | relative viability ([9]; first compound 0.1 µM) | relative viability ([10]; 0.003162 µM) | relative viability ([10]; 0.01 µM) | relative viability ([10]; 0.03162 µM) | relative viability ([10]; 0.1 µM)
EBC-1 | 0.18 | 0.199 | 0.151 | 0.135 | 0.11 | 0.1 | 0.0784 | 0.0763 | 0.239 | 0.183 | 0.177 | 0.157 | 0.335 | 0.17 | 0.156 | 0.148 | 0.374 | 0.228 | 0.146 | 0.132 | 0.892 | 0.614 | 0.484 | 0.227 | 0.733 | 0.354 | 0.268 | 0.206 | 0.497 | 0.436 | 0.208 | 0.156 | 0.655 | 0.544 | 0.487 | 0.291 | 0.983 | 0.74 | 0.506 | 0.349
NCI-H1299 | 0.613 | 0.822 | 0.698 | 0.507 | 1.04 | 1.06 | 0.588 | 0.333 | 0.947 | 0.852 | 0.698 | 0.547 | 0.743 | 0.171 | 0.134 | 0.0529 | 1.05 | 0.97 | 0.932 | 0.661 | 0.994 | 0.677 | 0.549 | 0.145 | 1.08 | 1.05 | 0.918 | 0.636 | 1.03 | 0.921 | 0.834 | 0.622 | 0.991 | 0.574 | 0.401 | 0.146 | 1.03 | 0.733 | 0.709 | 0.42
